Test results reported in US20080008658A1, “Contrast Agent Formulations for the Visualization of the Lymphatic System” (Bracco Imaging SpA, priority 2004, published 2008).

Experiment: Particle size distribution of microbubble suspensions in the Coulter Multisizer, method b (flotation purification from gas-free particles)
Assay type: physicochemical
Experimental: Dye-containing suspensions of gas-containing ultrasound contrast agents of the invention were analyzed for the particle size distributions in the Coulter® Multisizer (Beckman Coulter Inc. Fullerton, Calif., USA). […] Two methods may be used to determine the distribution of just the gas-containing particles in the compositions of the invention. Method b) The frequency distribution of the diameter of gas-containing particles is obtained after purification of the initial particle suspension from gas-free particles. Purification is achieved by flotation of the gas-containing particles in a centrifuge and substitution of the infranatant containing the gas-free particles with fresh saline. The procedure is executed once or twice depending on the initial contamination by gas-free particles. This method is preferable in those cases wherein the amount of insoluble material in the gas-containing particles exceeds 10% of the total insoluble material, in the initial suspension. The results may be represented either in the form of plots of the frequency distributions (e.g. example 11 and FIG. 1) or as parameters elaborated therefrom, i. e. total microbubble concentration, total microbubble surface, microbubble volume concentration and mean diameter in number (e.g. example 12). […]

Cc1cc(-c2ccc(/N=N/c3ccc4c(S(=O)(=O)O)cc(S(=O)(=O)O)c(N)c4c3O)c(C)c2)ccc1/N=N/c1ccc2c(S(=O)(=O)O)cc(S(=O)(=O)O)c(N)c2c1O [Evans blue]
Interference with the regular formation of microbubbles (SonoVue reconstituted with saline containing Evans blue vs regular SonoVue, echographic perspective): negligible | Stability of the microbubbles (time 0 vs after 3 h, presence of Evans blue): did not jeopardize the stability of the microbubbles
